Measurements reported in the NIST ThermoML archive (doi:10.1016/j.jct.2007.07.002).

Conditions: Gas, double Helmholtz acoustic resonator

O=C=O [carbon dioxide]
Conditions | kinematic viscosity [m2/s] | speed of sound [m/s]
220 K, 195.46 kPa | 2.37e-06 | 231.7
220 K, 226.71 kPa | 2e-06 | 231.05
220 K, 254.44 kPa | 1.79e-06 | 230.53
220 K, 288.21 kPa | 1.56e-06 | 229.81
220 K, 324.47 kPa | 1.37e-06 | 229.07
220 K, 362.71 kPa | 1.22e-06 | 228.29
220 K, 393.15 kPa | 1.12e-06 | 227.64
220 K, 425.51 kPa | 1.03e-06 | 226.95
220 K, 449.74 kPa | 9.7e-07 | 226.42
220 K, 479.78 kPa | 9.02e-07 | 225.76
235 K, 224.78 kPa | 2.31e-06 | 238.87
235 K, 359.42 kPa | 1.42e-06 | 236.69
235 K, 452.88 kPa | 1.11e-06 | 235.12
235 K, 545.18 kPa | 9.13e-07 | 233.52
235 K, 638.46 kPa | 7.66e-07 | 231.87
235 K, 723.88 kPa | 6.71e-07 | 230.31
235 K, 803.31 kPa | 5.95e-07 | 228.81
250 K, 274.2 kPa | 2.15e-06 | 245.57
250 K, 372.33 kPa | 1.57e-06 | 244.25
250 K, 491.25 kPa | 1.17e-06 | 242.62
250 K, 595.84 kPa | 9.53e-07 | 241.15
250 K, 702.28 kPa | 7.98e-07 | 239.62
250 K, 818.89 kPa | 6.75e-07 | 237.9
250 K, 953.03 kPa | 5.71e-07 | 235.87
250 K, 1060.2 kPa | 5.07e-07 | 234.18
250 K, 1177.6 kPa | 4.5e-07 | 232.28
250 K, 1291.6 kPa | 4.03e-07 | 230.37
250 K, 1438.2 kPa | 3.54e-07 | 227.81
270 K, 196.61 kPa | 3.5e-06 | 255.77
270 K, 354.95 kPa | 1.95e-06 | 254.13
270 K, 526.01 kPa | 1.29e-06 | 252.3
270 K, 705.02 kPa | 9.47e-07 | 250.33
270 K, 898.25 kPa | 7.28e-07 | 248.16
270 K, 1076.5 kPa | 5.99e-07 | 246.1
270 K, 1287.1 kPa | 4.91e-07 | 243.58
270 K, 1446.7 kPa | 4.31e-07 | 241.62
270 K, 1630 kPa | 3.76e-07 | 239.29
270 K, 1846 kPa | 3.26e-07 | 236.43
270 K, 2079.6 kPa | 2.84e-07 | 233.19
270 K, 2316.1 kPa | 2.49e-07 | 229.71
270 K, 2509.6 kPa | 2.26e-07 | 226.69
285 K, 371.48 kPa | 2.07e-06 | 260.81
285 K, 575.25 kPa | 1.31e-06 | 258.96
285 K, 787.74 kPa | 9.44e-07 | 257
285 K, 1013 kPa | 7.22e-07 | 254.87
285 K, 1228.5 kPa | 5.87e-07 | 252.79
285 K, 1500.4 kPa | 4.72e-07 | 250.09
285 K, 1707.2 kPa | 4.09e-07 | 247.98
285 K, 1947.2 kPa | 3.52e-07 | 245.46
285 K, 2221.2 kPa | 3.03e-07 | 242.48
285 K, 2559.7 kPa | 2.58e-07 | 238.62
285 K, 2841.9 kPa | 2.27e-07 | 235.23
285 K, 3057.8 kPa | 2.06e-07 | 232.51
300 K, 313.43 kPa | 2.72e-06 | 267.83
300 K, 531.89 kPa | 1.58e-06 | 266.16
300 K, 748.54 kPa | 1.11e-06 | 264.48
300 K, 993.26 kPa | 8.26e-07 | 262.55
300 K, 1237 kPa | 6.54e-07 | 260.6
300 K, 1526.1 kPa | 5.22e-07 | 258.23
300 K, 1747.8 kPa | 4.5e-07 | 256.38
300 K, 1991.5 kPa | 3.9e-07 | 254.3
300 K, 2272.2 kPa | 3.37e-07 | 251.86
300 K, 2577.9 kPa | 2.92e-07 | 249.12
300 K, 2893.9 kPa | 2.57e-07 | 246.21
300 K, 3145.8 kPa | 2.33e-07 | 243.81
304.77 K, 317.81 kPa | 2.78e-06 | 269.84
304.77 K, 527.05 kPa | 1.65e-06 | 268.3
304.77 K, 745.25 kPa | 1.15e-06 | 266.69
304.77 K, 979.77 kPa | 8.66e-07 | 264.94
304.77 K, 1201.7 kPa | 6.98e-07 | 263.26
304.77 K, 1478.9 kPa | 5.59e-07 | 261.12
304.77 K, 1699.4 kPa | 4.82e-07 | 259.4
304.77 K, 1950 kPa | 4.14e-07 | 257.4
304.77 K, 2235.2 kPa | 3.57e-07 | 255.09
304.77 K, 2552.7 kPa | 3.07e-07 | 252.45
304.77 K, 2881 kPa | 2.69e-07 | 249.66
304.77 K, 3135.9 kPa | 2.44e-07 | 247.43
310 K, 342.08 kPa | 2.66e-06 | 271.86
310 K, 552.05 kPa | 1.63e-06 | 270.4
310 K, 773.76 kPa | 1.15e-06 | 268.86
310 K, 1018 kPa | 8.63e-07 | 267.13
310 K, 1259.3 kPa | 6.9e-07 | 265.4
310 K, 1549 kPa | 5.53e-07 | 263.3
310 K, 1786.6 kPa | 4.75e-07 | 261.55
310 K, 2055.6 kPa | 4.08e-07 | 259.54
310 K, 2363 kPa | 3.49e-07 | 257.19
310 K, 2708.8 kPa | 3e-07 | 254.5
310 K, 3078 kPa | 2.6e-07 | 251.56
330 K, 201.27 kPa | 5.17e-06 | 280.89
330 K, 402.42 kPa | 2.55e-06 | 279.73
330 K, 626.86 kPa | 1.62e-06 | 278.46
330 K, 846.53 kPa | 1.19e-06 | 277.21
330 K, 1059.3 kPa | 9.44e-07 | 276
330 K, 1333 kPa | 7.43e-07 | 274.43
330 K, 1559.3 kPa | 6.3e-07 | 273.12
330 K, 1813.1 kPa | 5.37e-07 | 271.64
330 K, 2103.2 kPa | 4.59e-07 | 269.94
330 K, 2423.4 kPa | 3.94e-07 | 268.06
330 K, 2778.7 kPa | 3.4e-07 | 265.94
330 K, 3067.6 kPa | 3.06e-07 | 264.21
350 K, 234.16 kPa | 4.97e-06 | 288.49
350 K, 440.84 kPa | 2.61e-06 | 287.51
350 K, 660.1 kPa | 1.73e-06 | 286.5
350 K, 905.02 kPa | 1.25e-06 | 285.36
350 K, 1143.5 kPa | 9.86e-07 | 284.25
350 K, 1347.8 kPa | 8.31e-07 | 283.31
350 K, 1584.4 kPa | 7.03e-07 | 282.2
350 K, 1873 kPa | 5.9e-07 | 280.86
350 K, 2228.5 kPa | 4.92e-07 | 279.21
350 K, 2447.3 kPa | 4.45e-07 | 278.19
350 K, 2827.2 kPa | 3.82e-07 | 276.43
350 K, 3133.8 kPa | 3.42e-07 | 275.01
370 K, 335.49 kPa | 3.82e-06 | 295.63
370 K, 537.7 kPa | 2.37e-06 | 294.86
370 K, 749.31 kPa | 1.7e-06 | 294.05
370 K, 964.83 kPa | 1.31e-06 | 293.24
370 K, 1228.5 kPa | 1.03e-06 | 292.24
370 K, 1449.3 kPa | 8.66e-07 | 291.41
370 K, 1714.1 kPa | 7.29e-07 | 290.42
370 K, 2019 kPa | 6.15e-07 | 289.27
370 K, 2382.7 kPa | 5.18e-07 | 287.93
370 K, 2771.7 kPa | 4.42e-07 | 286.5
370 K, 3095.9 kPa | 3.93e-07 | 285.31
